Some results are limits rather than exact numbers.

The test system of data set [1] is antibody core fucosylation (CHO DG44 cell line producing humanized IgG1 anti-CD70 antibody h1F6). Put plainly: Inhibition of antibody core fucosylation in CHO DG44 cell culture producing h1F6. The class given is cell-based. The conditions noted are these: 120 h; 50 μM fucose analog, day 5, CHO DG44 h1F6; read-out: Inhibition at 50 μM. The procedure: Fucose analogs have been evaluated for their effect on antibody core fucosylation at concentrations of 50 μM and 1 mM generally as described in Published US Patent Application 2009-0317869. Briefly, the protocol was as follows: A CHO DG44 cell line producing a humanized IgG1 anti-CD70 monoclonal antibody, h1F6 (see International Patent Publication WO 06/113909) was cultured at 7.5×10^5 cells per mL in 2 mLs of CHO culture media at 37°, 5% CO2 and shaking at 100 RPM in a 6 well tissue culture plate. Media was supplemented with insulin like growth factor (IGF), penicillin, streptomycin and either 1 mM or 50 μM of the fucose analog. On day 5 post inoculation, the culture was centrifuged at 13000 RPM for 5 minutes to pellet the cells; antibodies were then purified from supernatant.
Antibody purification was performed by applying the conditioned media to protein A resin pre-equilibrated with 1× phosphate buffered saline (PBS), pH 7.4. After washing resin with 20 resin bed volumes of 1×PBS, antibodies were eluted with 5 resin bed volumes of Immunopure IgG elution buffer (Pierce Biotechnology, Rockford, Ill.). A 10% volume of 1M Tris pH 8.0 was added to neutralize the eluted fraction.

Data set [2] relates to antibody core fucosylation (antibodies that did not bind to KLH, recovered from protein A column). Put plainly: In vivo antibody fucosylation after ip dosing (Example 1, Study 1), AOL lectin dot blot. As to conditions: 150 mg/kg ip daily for 7 days. The procedure: Female BALB/c mice were immunized with Keyhole Limpet Hemocyanin (KLH) 30-60 days prior to starting this study. For the first study, mice were dosed ip with 150 mg/kg of alkynyl fucose (SGD-1887), alkynyl fucose peracetate (SGD-1890), 2-fluorofucose (SGD-2083), or 2-fluorofucose triacetate (SGD-2084) daily for 7 days or were untreated. On day 2, mice were also boosted with KLH. On the day after the last ip dose, mice were terminally bled and serum obtained. For the second study, mice were given 100 mM of 2-fluorofucose (SGD-2083) in their drinking water or given untreated water for 7 days, boosted with KLH, and continued with 100 mM 2-fluorofucose containing drinking water or untreated water for 7 more days before being terminally bled. Serum was then obtained. No mice died in either study. For both studies, serum was passed over a commercial anti-KLH affinity column to obtain KLH-specific polyclonal antibodies. The flow through from the anti-KLH affinity column was passed over a commercial protein A column to obtain the remaining antibodies.
Dot blots: 0.5 μg each of antibodies from untreated and treated animals, as well as standards of antibody cAC10 having known amounts of core fucosylation (0 to 100% fucose), were blotted onto a nitrocellulose membrane. The proteins levels were visualized by Ponceau staining. The blot was probed with biotinylated Aspergillus oryzae L-fucose-specific lectin (AOL) (which binds to fucosylated antibodies) and developed with streptavidin HRP and ECL. Gel loading (visible) and fucose signals (bioluminescence) were measured with an Alpha Innotech camera and quantitated with the machine software.

Data set [3] concerns P-selectin ligand on Ramos cells. Put plainly: Cell surface P-selectin ligand by FACS, P-selectin fusion protein, Ramos. It is filed as cell-based, human. The procedure: 100 μM of each inhibitor was used under standard culture conditions for approximately 1-2 weeks with regular changes of culture medium including fresh inhibitor. After the incubation period, the cells were analyzed by FACS using four different detection reagents: biotinylated-Lens culimaris agglutinin-A (LCA), anti-Lewis' antibody (anti-SSEA1), an anti-Lewis^y antibody (cBR96), and a Recombinant Human P-Selectin/CD62P/Fc Fusion protein. The procedure involved washing of the cells with FACS buffer (PBS+10% bovine serum albumin+0.02% sodium azide) 3 times followed by incubation with the primary detection reagent for 1 hr at 4° C., followed by 3 washes with FACS buffer and then incubation with the secondary detection reagent for 1 hr at 4° C. The cells were finally washed with FACS buffer 3 times and resuspended in FACS buffer and examined using a BD FACScan instrument. […] The P-selectin fusion protein detects P-selectin ligand present on the surface of cells, an interaction which involves the sialyl Lewis' epitope present of the P-selectin ligand.

For data set [4], the system named is LP-1, a human multiple myeloma cell line (IgG fucosylation). Kind of data set: Fucosylation of LP-1-generated IgG, AOL dot blot. As to conditions: Homo sapiens, LP-1, 120 h, 5 days, LP-1 cells, AOL dot blot, multiple samples separated by semicolon, read-out: % of control fucosylated IgG value. It is filed as cell-based. The procedure: To further evaluate the activities of different fucose analogs, 48 different fucose analogs and other four glycosylation inhibitors were tested for their ability to affect the fucosylation the LP-1-generated IgG. LP-1 cells (250,000 cells/mL, 3 mL per compound in 6-well plates) were incubated with 100 μM of each fucose analog for 5 days at 37° C. with a humidified atmosphere of 5% CO2 in IgG-depleted tissue culture media (90% RPMI with 10% IgG-depleted heat inactivated FBS). The IgG was isolated as described above using only 0.5 mL of MabSelect™ protein A resin slurry and one spin cup per sample with elution in 400 μL of IgG elution buffer into 25 μL of 9 M Tris buffer, pH 9. The eluates were concentrated to 10-20 μL per sample and 2 μL of each of the concentrated eluates were dotted onto a nitrocellulose membrane and stained with Ponceau S to estimate and adjust the sample loading for AOL staining. From this estimation of total protein in each sample, approximately 0.5 μg of each sample was dotted onto the membrane, air-dried, and stained with Ponceau S. An image of this stained membrane was captured using an Alpha Innotech FlourChem® Q system. The membrane was then blocked with 5% Bovine Serum Albumin (BSA) in Tris Buffered Saline (TBS) for 1 hr, washed with TBST (TBS with […]) 3 times and then incubated with 5 μg/ml biotinylated-AOL for 1 hr. The membrane was washed again with TBST 3 times, followed by Streptavidin-HRP incubation for 30 min and final washes with TBST 3 times.

On to `C#CC(O)[C@@H](O)[C@@H](O)[C@H](O)C=O` (some centres unmarked) [SGD-1887, 5-ethynylarabinose], for which the Inhibition at 50 μM in data set [1] was > 80%. Besides, the mortality result in data set [2] was “No mice died”. Besides, the “fucosylation levels of the antibodies reduced, as compared to the untreated controls” value in data set [2] (non-KLH antibodies from protein A column, dot blot, on average) was “about one third”. The “signal for P-selectin ligand (increase upon treatment)” value in data set [3] is “not observed”. Moreover, the activity at 100 µM in data set [4] is 3%.

The values are drawn from US9504702B2, “Methods of inhibition of protein fucosylation in vivo using fucose analogs” (Seattle Genetics, Inc., priority 2010, dated 2016).
